From patent US5179088A, “1-Carba(dethia)cephalosporin antibiotics” (Eli Lilly and Company, priority 1990, dated 1993)

How the values were obtained:
Type in all cases: cell-based
Parameters in all cases: unit not given here
Staphylococcus Epi = assay: in vitro antibacterial activity, agar dilution (Staphylococcus epi)
Procedure: (§1) *minimum inhibitory concentrations were determined by the Agardilution

Enterbacter Aerogenes = assay: in vitro antibacterial activity, agar dilution (Enterobacter aerogenes)
Procedure: as §1

Acin = assay: in vitro antibacterial activity, agar dilution (Acin); conditions: strain AC12
Procedure: as §1

Proteus incon = assay: in vitro antibacterial activity, agar dilution (Proteus incon); conditions: strain PR33
Procedure: as §1

Citro = assay: in vitro antibacterial activity, agar dilution (Citro); conditions: strain CF17
Procedure: as §1

Salmonella = assay: in vitro antibacterial activity, agar dilution (Salmonella)
Procedure: as §1

Proteus morg = assay: in vitro antibacterial activity, agar dilution (Proteus morg); conditions: strain PR15
Procedure: as §1

Shig. sonn = assay: in vitro antibacterial activity, agar dilution (Shig. sonn); conditions: strain N9
Procedure: as §1

Proteus rett = assay: in vitro antibacterial activity, agar dilution (Proteus rett); conditions: strain C24
Procedure: as §1

Serratia = assay: in vitro antibacterial activity, agar dilution (Serratia)
Procedure: as §1

Pseudomonas = assay: in vitro antibacterial activity, agar dilution (Pseudomonas)
Procedure: as §1

Enterbacter Cloacea = assay: in vitro antibacterial activity, agar dilution (Enterobacter cloacae)
Procedure: as §1

Staphylococcus Aureus = assay: in vitro antibacterial activity, agar dilution (Staphylococcus aureus)
Procedure: as §1

H. Influ. = assay: in vitro antibacterial activity, agar dilution (H. influ.)
Procedure: as §1

Streptococcus pn = assay: in vitro antibacterial activity, agar dilution (Streptococcus pn); conditions: strain PARK
Procedure: as §1

E. coli = assay: in vitro antibacterial activity, agar dilution (E. coli)
Procedure: as §1

Klebsiella = assay: in vitro antibacterial activity, agar dilution (Klebsiella)
Procedure: as §1

Streptococcus A = assay: in vitro antibacterial activity, agar dilution (Streptococcus A); conditions: strain C203
Procedure: as §1

Streptococcus D = assay: in vitro antibacterial activity, agar dilution (Streptococcus D)
Procedure: as §1

## CO/N=C(\C(=O)N[C@@H]1C(=O)N2C(C(=O)O)=C(c3csc(-c4ccc(F)cc4)n3)CC[C@H]12)c1csc(N)n1 [Example 37, 7β-[(2-aminothiazol-4-yl)-Z-methoximinoacetylamino]-1-carba-(1-dethia)-3-[2-(4-fluorophenyl)thiazol-4-yl]-3-cephem-4-carboxylic acid]
Staphylococcus Epi; strain 222
  minimum inhibitory concentration: 2
Staphylococcus Epi; strain 270
  minimum inhibitory concentration: 32
Enterbacter Aerogenes; strain C32
  minimum inhibitory concentration: 2
Enterbacter Aerogenes; strain EB17
  minimum inhibitory concentration: 1
Acin
  minimum inhibitory concentration: 128
Proteus incon
  minimum inhibitory concentration: .125
Citro
  minimum inhibitory concentration: 4
Salmonella; strain 1335
  minimum inhibitory concentration: 2
Salmonella; strain X514
  minimum inhibitory concentration: .5
Proteus morg
  minimum inhibitory concentration: 2
Shig. sonn
  minimum inhibitory concentration: 1
Proteus rett
  minimum inhibitory concentration: .125
Serratia; strain SE3
  minimum inhibitory concentration: 8
Serratia; strain X99
  minimum inhibitory concentration: 4
Pseudomonas; strain PS18
  minimum inhibitory concentration: > 128
Pseudomonas; strain PS72
  minimum inhibitory concentration: > 128
Pseudomonas; strain X239
  minimum inhibitory concentration: > 128
Pseudomonas; strain X528
  minimum inhibitory concentration: > 128
Enterbacter Cloacea; strain 265A
  minimum inhibitory concentration: > 128
Enterbacter Cloacea; strain EB5
  minimum inhibitory concentration: 2
Staphylococcus Aureus; strain S13E
  minimum inhibitory concentration: > 128
Staphylococcus Aureus; strain V41
  minimum inhibitory concentration: 2
Staphylococcus Aureus; strain X1.1
  minimum inhibitory concentration: 1
Staphylococcus Aureus; strain X400
  minimum inhibitory concentration: > 128
H. Influ.; res, strain 76
  minimum inhibitory concentration: .015
H. Influ.; sens, strain C.L.
  minimum inhibitory concentration: .03
Streptococcus pn
  minimum inhibitory concentration: < .008
E. coli; strain EC14
  minimum inhibitory concentration: .5
E. coli; strain N10
  minimum inhibitory concentration: 2
Klebsiella; strain KAE
  minimum inhibitory concentration: 2
Klebsiella; strain X26
  minimum inhibitory concentration: < .008
Klebsiella; strain X68
  minimum inhibitory concentration: .5
Streptococcus A
  minimum inhibitory concentration: < .008
Streptococcus D; strain 2041
  minimum inhibitory concentration: 4
Streptococcus D; strain X66
  minimum inhibitory concentration: > 128

## CO/N=C(\C(=O)N[C@@H]1C(=O)N2C(C(=O)O)=C(c3csc(-c4ccccc4)n3)CC[C@H]12)c1csc(N)n1 [Example 31, Sodium 7β-[(2-aminothiazol-4-yl)-Z-methoximinoacetylamino]-1-carba-(1-dethia)-3-[2-(2-phenyl)thiazol-4-yl]-3-cephem-4-carboxylate]
Staphylococcus Epi; strain 222
  minimum inhibitory concentration: 2
Staphylococcus Epi; strain 270
  minimum inhibitory concentration: 8
Enterbacter Aerogenes; strain C32
  minimum inhibitory concentration: 1
Enterbacter Aerogenes; strain EB17
  minimum inhibitory concentration: 1
Acin
  minimum inhibitory concentration: 128
Proteus incon
  minimum inhibitory concentration: .5
Citro
  minimum inhibitory concentration: 4
Salmonella; strain 1335
  minimum inhibitory concentration: 4
Salmonella; strain X514
  minimum inhibitory concentration: 2
Proteus morg
  minimum inhibitory concentration: 2
Shig. sonn
  minimum inhibitory concentration: 1
Proteus rett
  minimum inhibitory concentration: .25
Serratia; strain SE3
  minimum inhibitory concentration: 8
Serratia; strain X99
  minimum inhibitory concentration: 4
Pseudomonas; strain PS18
  minimum inhibitory concentration: > 128
Pseudomonas; strain PS72
  minimum inhibitory concentration: > 128
Pseudomonas; strain X239
  minimum inhibitory concentration: > 128
Pseudomonas; strain X528
  minimum inhibitory concentration: > 128
Enterbacter Cloacea; strain 265A
  minimum inhibitory concentration: 64
Enterbacter Cloacea; strain EB5
  minimum inhibitory concentration: 1
Staphylococcus Aureus; strain S13E
  minimum inhibitory concentration: 128
Staphylococcus Aureus; strain V41
  minimum inhibitory concentration: 2
Staphylococcus Aureus; strain X1.1
  minimum inhibitory concentration: 1
Staphylococcus Aureus; strain X400
  minimum inhibitory concentration: > 128
H. Influ.; res, strain 76
  minimum inhibitory concentration: .03
H. Influ.; sens, strain C.L.
  minimum inhibitory concentration: .06
Streptococcus pn
  minimum inhibitory concentration: < .008
E. coli; strain EC14
  minimum inhibitory concentration: 1
E. coli; strain N10
  minimum inhibitory concentration: 2
E. coli; strain TEM
  minimum inhibitory concentration: 1
Klebsiella; strain KAE
  minimum inhibitory concentration: 1
Klebsiella; strain X26
  minimum inhibitory concentration: .015
Klebsiella; strain X68
  minimum inhibitory concentration: 1
Streptococcus A
  minimum inhibitory concentration: < .008
Streptococcus D; strain 2041
  minimum inhibitory concentration: 4
Streptococcus D; strain X66
  minimum inhibitory concentration: > 128

## CON=C(C(=O)NC1C(=O)N2C(C(=O)[O-])=C(c3csc(-c4ccc[n+](C)c4)n3)CCC12)c1csc(N)n1 (stereo not drawn) [Example 34, 7β-[(2-aminothiazol-4-yl)-Z-methoximinoacetylamino]-1-carba-(1-dethia)-3-[2-(1-methyl-3-pyridyl)thiazol-4-yl]-3-cephem-4-carboxylic acid]
Staphylococcus Epi; strain 222
  minimum inhibitory concentration: 4
Staphylococcus Epi; strain 270
  minimum inhibitory concentration: 16
Enterbacter Aerogenes; strain C32
  minimum inhibitory concentration: .03
Enterbacter Aerogenes; strain EB17
  minimum inhibitory concentration: .03
Acin
  minimum inhibitory concentration: 128
Proteus incon
  minimum inhibitory concentration: .03
Citro
  minimum inhibitory concentration: .015
Salmonella; strain 1335
  minimum inhibitory concentration: .06
Salmonella; strain X514
  minimum inhibitory concentration: .015
Proteus morg
  minimum inhibitory concentration: .06
Shig. sonn
  minimum inhibitory concentration: .06
Proteus rett
  minimum inhibitory concentration: .03
Serratia; strain SE3
  minimum inhibitory concentration: .125
Serratia; strain X99
  minimum inhibitory concentration: .06
Enterbacter Cloacea; strain 265A
  minimum inhibitory concentration: 4
Enterbacter Cloacea; strain EB5
  minimum inhibitory concentration: .125
Staphylococcus Aureus; strain S13E
  minimum inhibitory concentration: > 128
Staphylococcus Aureus; strain V41
  minimum inhibitory concentration: 8
Staphylococcus Aureus; strain X1.1
  minimum inhibitory concentration: 1
Staphylococcus Aureus; strain X400
  minimum inhibitory concentration: 128
H. Influ.; res, strain 76
  minimum inhibitory concentration: .015
H. Influ.; sens, strain C.L.
  minimum inhibitory concentration: .015
Streptococcus pn
  minimum inhibitory concentration: .015
E. coli; strain EC14
  minimum inhibitory concentration: .015
E. coli; strain N10
  minimum inhibitory concentration: .03
Klebsiella; strain KAE
  minimum inhibitory concentration: .25
Klebsiella; strain X26
  minimum inhibitory concentration: < .008
Klebsiella; strain X68
  minimum inhibitory concentration: .06
Streptococcus A
  minimum inhibitory concentration: .015
Streptococcus D; strain 2041
  minimum inhibitory concentration: 128
Streptococcus D; strain X66
  minimum inhibitory concentration: > 128

## Cn1c([N+](=O)[O-])cnc1-c1nc(C2=C(C(=O)O)N3C(=O)[C@@H](NC(=O)/C(=N\O)c4csc(N)n4)[C@H]3CC2)cs1 [Example 33, 7β-[(2-Aminothiazol-4-yl)-Z-hydroxyiminoacetylamino]-1-carba-(1-dethia)-3-[2-(4-nitro-3-methylimidazol-2-yl)thiazol-4-yl]-3-cephem-4-carboxylicacid]
Staphylococcus Epi; strain 222
  minimum inhibitory concentration: 1
Staphylococcus Epi; strain 270
  minimum inhibitory concentration: 4
Enterbacter Aerogenes; strain C32
  minimum inhibitory concentration: 1
Enterbacter Aerogenes; strain EB17
  minimum inhibitory concentration: 1
Acin
  minimum inhibitory concentration: 128
Proteus incon
  minimum inhibitory concentration: .25
Citro
  minimum inhibitory concentration: 4
Salmonella; strain 1335
  minimum inhibitory concentration: 2
Salmonella; strain X514
  minimum inhibitory concentration: .5
Proteus morg
  minimum inhibitory concentration: 4
Shig. sonn
  minimum inhibitory concentration: 2
Proteus rett
  minimum inhibitory concentration: .06
Serratia; strain SE3
  minimum inhibitory concentration: 16
Serratia; strain X99
  minimum inhibitory concentration: 2
Enterbacter Cloacea; strain 265A
  minimum inhibitory concentration: 16
Enterbacter Cloacea; strain EB5
  minimum inhibitory concentration: 1
Staphylococcus Aureus; strain S13E
  minimum inhibitory concentration: 4
Staphylococcus Aureus; strain V41
  minimum inhibitory concentration: .5
Staphylococcus Aureus; strain X1.1
  minimum inhibitory concentration: .06
Staphylococcus Aureus; strain X400
  minimum inhibitory concentration: > 128
H. Influ.; res, strain 76
  minimum inhibitory concentration: .015
H. Influ.; sens, strain C.L.
  minimum inhibitory concentration: .06
Streptococcus pn
  minimum inhibitory concentration: .015
E. coli; strain EC14
  minimum inhibitory concentration: 1
E. coli; strain N10
  minimum inhibitory concentration: 2
E. coli; strain TEM
  minimum inhibitory concentration: 1
Klebsiella; strain KAE
  minimum inhibitory concentration: 2
Klebsiella; strain X26
  minimum inhibitory concentration: .015
Klebsiella; strain X68
  minimum inhibitory concentration: 1
Streptococcus A
  minimum inhibitory concentration: < .008
Streptococcus D; strain 2041
  minimum inhibitory concentration: 1
Streptococcus D; strain X66
  minimum inhibitory concentration: 128
